US7547804B2, “Compounds, compositions, and methods employing same” (Myriad Genetics, Inc., priority 2002, dated 2009)

tested on: LNCaP cell lines; assay: WST-1 Cell Proliferation and Viability Assay; type: cell-based; details: Homo sapiens; LNCaP cells, compound incubation 18-72 hours
Method: WST-1 Cell Proliferation and Viability Assay
Cell proliferation and cell viability was assessed using the tetrazolium salt WST-1 (Roche Applied Science, Indianapolis Ind.). The assay is based on the cleavage of WST-1 (light red) by mitochondrial dehydrogenase causing the formation of formazan (dark red), which can be measured on an optical density (O.D.) reader. LNCaP cell lines were plated in 96 well tissue culture plates (Corning Costar, N.Y.) at a density of 5000 cells/well in 150 μl complete media phenol-red free (RPMI-1640 [Invitrogen, Carlsbad Calif.] and 10% fetal calf serum). This plate is termed the assay plate. After the cells are plated, they are then incubated overnight at 37 degrees Celsius in a humidified chamber containing 5% CO2 (incubator).
Compounds are added to the assay plate in 50 μl of complete media and 0.4% DMSO (v:v) making the final DMSO concentration 0.1%. The assay plate is then returned to the incubator for 18-72 hours. WST-1 reagent is then added (20 μl/well) and the plate is placed on an ELISA plate shaker for 30 minutes at room temperature. Plates are then transferred back to the incubator for an additional 3 hours. Plates are then read on a 96 well plate O.D. reader at A490-A650.

Row | EC50 [µM] | SMILES
1 | 0.8 | O=C(Nc1cc(Cl)ccc1OCCc1cccc(C(F)(F)F)c1)c1cc(Cl)ccc1O [Compound 83]
2 | 33 | COc1ccccc1CCOc1cccc(NC(=O)c2cccc(C)c2O)c1 [Compound 207]
3 | 6 | O=C(Nc1cc(Cl)ccc1OCCc1ccccc1C(F)(F)F)c1cnc2cc(C(F)(F)F)ccc2c1O [Compound 167]
4 | 16 | COc1ccccc1CCOc1cccc(NC(=O)c2cc(-c3ccccc3Oc3ccccc3)ccc2O)c1 [Compound 344]
5 | 2 | Cc1cc(C)c(OCCc2cccc(C(F)(F)F)c2)c(NC(=O)c2cc(Cl)ccc2O)c1 [Compound 159]
6 | 22 | Cc1cccc(C(=O)Nc2cccc(OCCc3ccccc3)c2)c1O [Compound 210]
7 | 1.8 | Cc1cccc(COc2ccc(C(F)(F)F)cc2NC(=O)c2cc(Cl)ccc2O)c1 [Compound 307]
8 | 3 | Cc1ccccc1COc1ccc(Cl)cc1NC(=O)c1cc(Cl)ccc1O [Compound 313]
9 | 7 | O=C(Nc1cccc(OCCc2ccccc2)c1)c1cc(Br)ccc1O [Compound 193]
10 | 3 | O=C(Nc1cc(Cl)cc(Cl)c1OCCc1ccccc1C(F)(F)F)c1cc(Cl)ccc1O [Compound 172]
11 | 1.2 | COC(=O)C1CCCN(c2ccc(C(F)(F)F)cc2NC(=O)c2cc(Cl)ccc2O)C1 (centres unmarked) [Compound 315]
12 | 9 | COc1ccccc1CCOc1cccc(NC(=O)c2cc(Br)ccc2O)c1 [Compound 194]
13 | 16 | COc1ccccc1CCOc1cccc(NC(=O)c2cc(-c3cccs3)ccc2O)c1 [Compound 356]
14 | 19 | COc1ccccc1CCOc1cccc(NC(=O)c2cc(Cl)ccc2NS(C)(=O)=O)c1 [Compound 337]
15 | 10 | COc1ccc(-c2ccc(O)c(C(=O)Nc3cccc(OCCc4ccccc4OC)c3)c2)cc1 [Compound 342]
16 | 7 | COc1ccccc1CCOc1cccc(NC(=O)c2cc(-c3cccc4ccccc34)ccc2O)c1 [Compound 338]
17 | 33 | COc1ccccc1CCOc1cccc(NC(=O)c2cccc(C(C)C)c2O)c1 [Compound 203]
18 | 1 | O=C(Nc1cc(Cl)ccc1OCCCc1ccccc1)c1cc(Cl)ccc1O [Compound 75]
19 | 3 | CCOCCOCCOc1ccc(C(F)(F)F)cc1NC(=O)c1cc(Cl)ccc1O [Compound 298]
20 | 4 | Cc1ccc(OCCc2ccccc2)c(NC(=O)c2cc(Cl)ccc2O)c1 [Compound 149]
21 | 6 | O=CNc1cccc(C(=O)Nc2cc(C(F)(F)F)ccc2OCCc2cccc(C(F)(F)F)c2)c1O [Compound 261]
22 | 2 | Cc1ccc(OCCc2cccc(C(F)(F)F)c2)c(NC(=O)c2cc(Cl)ccc2O)c1 [Compound 157]

Row | EC50 [µM] | SMILES
23 | 0.67 | CCCOCCOc1ccc(C(F)(F)F)cc1NC(=O)c1cc(Cl)ccc1O [Compound 301]
24 | 13 | COc1ccc(NC(=O)c2cc(Cl)ccc2O)cc1OCCc1ccccc1 [Compound 12]
25 | 2 | COCCN(C)c1ccc(NC(=O)c2cc(Cl)ccc2O)cc1C(F)(F)F [Compound 365]
26 | 1 | Cc1cccc(CCOc2ccc(Cl)cc2NC(=O)c2cc(Cl)ccc2O)c1 [Compound 77]
27 | 8 | COc1ccccc1CCOc1cccc(NC(=O)c2cc(-c3ccc(F)cc3F)ccc2O)c1 [Compound 223]
28 | 2 | O=C(Nc1cc(Cl)ccc1OCCc1cccc(OC(F)(F)F)c1)c1cc(Cl)ccc1O [Compound 284]
29 | 0.4 | O=C(Nc1cc(C(F)(F)F)ccc1OCCc1cccc(C(F)(F)F)c1)c1cc(Cl)ccc1O [Compound 155]
30 | 2 | O=C(Nc1cccc(Cl)c1OCCc1cccc(C(F)(F)F)c1)c1cc(Cl)ccc1O [Compound 158]
31 | 18 | CC(C)Cc1ccc(CNc2cccc(NC(=O)c3cc(Cl)ccc3O)c2)cc1 [Compound 13]
32 | 6 | O=C(Nc1cccc(OCCc2cccc(C(F)(F)F)c2)c1)c1cc(Cl)ccc1O [Compound 125]
33 | 10 | COc1ccccc1CCOc1cccc(NC(=O)c2cc(-n3cccc3)ccc2O)c1 [Compound 233]
34 | 17 | COc1ccccc1CCOc1cccc(NC(=O)c2cc(-c3ccc4c(c3)OCO4)ccc2O)c1 [Compound 348]
35 | 17 | Cc1cccc(-c2cccc(CNC(=O)c3cc(Cl)ccc3O)c2)c1 [Compound 145]
36 | 1 | Cc1cc(OCCc2cccc(C(F)(F)F)c2)c(NC(=O)c2cc(Cl)ccc2O)cc1Cl [Compound 243]
37 | 0.83 | COC(=O)c1ccc(COc2ccc(C(F)(F)F)cc2NC(=O)c2cc(Cl)ccc2O)cc1 [Compound 308]
38 | 30 | O=C(NCc1cccc(-c2ccccc2)c1)c1ccc(F)cc1O [Compound 189]
39 | 10 | O=C(Nc1cccc(OCCc2cccc(F)c2)c1)c1cc(Cl)ccc1O [Compound 35]
40 | 1 | O=C(Nc1cc(C(F)(F)F)ccc1OCCc1ccc(Cl)s1)c1cc(Cl)ccc1O [Compound 254]
41 | 5 | Cc1ccc(NC(=O)c2cc(Cl)ccc2O)c(OCCc2ccccc2C(F)(F)F)c1 [Compound 171]
42 | 7 | N#Cc1ccc(OCCc2ccccc2)c(NC(=O)c2cc(Cl)ccc2O)c1 [Compound 152]
43 | 1 | Cc1cc(OCCc2ccccc2C(F)(F)F)c(NC(=O)c2cc(Cl)ccc2O)cc1Cl [Compound 136]

The remaining lines, values behind:

Row | SMILES | EC50 [µM]
44 | O=C(Nc1cc(Cl)ccc1OCCc1ccccc1F)c1cc(Cl)ccc1O [Compound 107] | 2
45 | Cc1cccc(OCCc2ccccc2C(F)(F)F)c1NC(=O)c1cc(Cl)ccc1O [Compound 173] | 11
46 | CC(C)(C)c1cc(C(=O)NCc2cccc(-c3ccccc3)c2)c(O)c(C(C)(C)C)c1 [Compound 219] | 32
47 | COc1cccc(CCOc2ccc(Cl)c(NC(=O)c3cc(Cl)ccc3O)c2)c1 [Compound 33] | 3
48 | O=C(Nc1cc(Cl)ccc1OCCc1ccc(OC(F)(F)F)cc1)c1cc(Cl)ccc1O [Compound 161] | 1
49 | CCN(CC)c1ccc(NC(=O)c2cc(Cl)ccc2O)c(OCCc2cccc(C(F)(F)F)c2)c1 [Compound 360] | 2.4
50 | O=C(Nc1cc(C(F)(F)F)ccc1OCCC1CC1)c1cc(Cl)ccc1O [Compound 265] | 0.9
51 | Cc1ccc(OCCc2ccccc2C(F)(F)F)c(NC(=O)c2cc(Cl)ccc2O)c1 [Compound 142] | 3
52 | O=C(Nc1cc(C(F)(F)F)cc(Cl)c1OCCc1cccc(C(F)(F)F)c1)c1cc(Cl)ccc1O [Compound 252] | 1
53 | O=C(Nc1cc(C(F)(F)F)ccc1OCc1ccccc1)c1cc(Cl)ccc1O [Compound 266] | 0.9
54 | O=C(Nc1cc(Cl)cc(Cl)c1OCCc1cccc(C(F)(F)F)c1)c1cc(Cl)ccc1O [Compound 242] | 2
55 | O=C(Nc1cc(Cl)cc(Cl)c1OCCc1ccc(CC(F)(F)F)cc1)c1cc(Cl)ccc1O [Compound 163] | 2
56 | Cc1cc(C)c(CCOc2ccc(Cl)cc2NC(=O)c2cc(Cl)ccc2O)c(C)c1 [Compound 81] | 1
57 | O=CNc1cccc(C(=O)Nc2cccc(OCCc3ccccc3)c2)c1O [Compound 5] | 5
58 | O=C(Nc1cc(C(F)(F)F)cc(Cl)c1OCCc1ccc(C(F)(F)F)cc1)c1cc(Cl)ccc1O [Compound 130] | 2
59 | COC(=O)c1ccc(OCCc2ccccc2)c(NC(=O)c2cc(Cl)ccc2O)c1 [Compound 325] | 3.3
60 | O=C(Nc1cc(C(F)(F)F)ccc1SCCc1cccc(C(F)(F)F)c1)c1cc(Cl)ccc1O [Compound 260] | 1
61 | COc1ccccc1CCNc1ccc(C(F)(F)F)cc1NC(=O)c1cc(Cl)ccc1O [Compound 274] | 4
62 | COc1ccccc1CCOc1cccc(NC(=O)c2cc(-c3ccccc3)ccc2O)c1 [Compound 234] | 10
63 | COc1ccccc1CCOc1cccc(NC(=O)c2cc(-c3ccc(Cl)cc3)ccc2O)c1 [Compound 351] | 11
64 | CCN(Cc1ccncc1)c1ccc(NC(=O)c2cc(Cl)ccc2O)c(OCCc2cccc(C(F)(F)F)c2)c1 [Compound 377] | 4
65 | O=C(NCc1cc(C(F)(F)F)cc(C(F)(F)F)c1)c1cc(Cl)ccc1O [Compound 122] | 9
66 | O=C(Nc1cccc(OCCc2ccccc2)c1)c1cccc(-c2ccccc2)c1O [Compound 224] | 22
67 | O=C(Nc1cccc(OCCc2ccccc2)c1)c1ccc(F)cc1O [Compound 191] | 15
68 | Cc1ccccc1COc1cccc(NC(=O)c2cc(Cl)ccc2O)c1 [Compound 84] | 14
69 | COc1ccccc1CCOc1cccc(NC(=O)c2cc(-c3ccccc3Cl)ccc2O)c1 [Compound 350] | 10

same assay, conditions: Homo sapiens; LNCaP cells; flagged "Estimated": based on actual data at different concentrations

Row | EC50 [µM] | SMILES
70 | 32 | O=C(NCc1cccc(-c2ccccc2)c1)c1cccc(-c2ccccc2)c1O [Compound 218]
71 | 30 | O=C(NCc1ccc(Cl)c(C(F)(F)F)c1)c1cc(Cl)ccc1O [Compound 290]
72 | 20 | O=C(c1ccccc1)c1ccc(NC(=O)c2cc(Cl)ccc2O)cc1 [Compound 25]

Second part, the compound before the results:

Row | SMILES | EC50 [µM]
73 | CC(=O)Nc1cc(F)c(F)cc1C(=O)Nc1cccc(OCCc2ccccc2)c1 [Compound 7] | 30
74 | Cc1c(CNC(=O)c2cc(Cl)ccc2O)cccc1-c1ccccc1 [Compound 120] | 18
75 | O=C(Nc1cccc(OCCc2ccccc2)c1)c1cc(Cl)cc([N+](=O)[O-])c1O [Compound 123] | 30
76 | O=C(Nc1cc(NC(=O)c2cc(Cl)ccc2O)cc(C(F)(F)F)c1)c1cc(Cl)ccc1O [Compound 151] | 30
77 | COc1ccccc1CCOc1cccc(NC(=O)c2cc(Cl)ccc2[N+](=O)[O-])c1 [Compound 229] | 30
